US12440610B2, “Coated medical devices and methods of inhibiting implant-associated infections” (UNIVERSITY OF CINCINNATI, priority 2017, dated 2025)
“And” between values parts separate entries of the source, which are not always exact repeats. Equal values may be shown once.

Experiments:
[1] = test system: methicillin resistant S. aureus (MRSA); experiment: In vitro bacterial adherence and colonization of coated implants, MRSA; type: cell-based; conditions: 24 hours incubation; for reduction of MRSA adherent to PTFE in vitro: coated PTFE; for reduction of MRSA adherent to PTFE in vitro / reduction of MRSA adherent to titanium screws in vitro: vs vehicle-coated controls; for reduction of MRSA adherent to silk suture in vitro: coated silk suture, vs vehicle (100% ethanol)-coated controls; for reduction of MRSA adherent to titanium screws in vitro: coated titanium screws
Experimental: Small pieces of PTFE (5 mm×5 mm), silk suture (2 cm), and titanium screws antibiotic-coated and vehicle (100% ethanol)-coated, were prepared for analysis as in Example 1.2. Bacteria was prepared as in 2.3 and 1000 colony forming units (cfus) in 300 μL was placed in the wells of 96-well plates. The antibiotic-coated and vehicle-coated pieces were then immersed and incubated for 24 hours at 37° C., 95% humidity (n=15 per group). Pieces were then placed in 10 mL sterile PBS and bath sonicated for 10 minutes to release adherent bacteria. Bacteria were quantified by the plate dilution method.

[2] = test system: P. aeruginosa (strain 762); experiment: In vitro bacterial adherence and colonization of coated implants, P. aeruginosa; type: cell-based; conditions: for reduction of P. aeruginosa adherent to PTFE in vitro / reduction of P. aeruginosa adherent to silk suture in vitro / reduction of P. aeruginosa adherent to titanium screws in vitro: 24 hours incubation, vs vehicle-coated controls; for reduction of P. aeruginosa adherent to silk suture in vitro: coated silk suture
Experimental: Bacteria was prepared as in 2.3 and 1000 colony forming units (cfus) in 300 μL was placed in the wells of 96-well plates. […] Pieces were then placed in 10 mL sterile PBS and bath sonicated for 10 minutes to release adherent bacteria. Bacteria were quantified by the plate dilution method.

[3] = test system: methicillin resistant S. aureus (MRSA); experiment: Subcutaneous implant and infection of mice, MRSA colonization of implant; conditions: CF-1 mice, 2.5 million cfu, 3 days post infection; for reduction of MRSA colonization of PTFE in vivo: subcutaneous coated PTFE; for reduction of MRSA colonization of silk suture in vivo: subcutaneous coated silk suture; for reduction of MRSA colonization of titanium screws in vivo: subcutaneous coated titanium screws
Source text: (§1) Intact 5 cm sections of PTFE graft, full 75 cm length of silk suture, and individual titanium screws were dip-coated into each antibiotic solution and immediately withdrawn at a rate of ˜200 mm/'s. Thin films of antibiotic were subsequently formed as the ethanol evaporated.
(§2) After the PTFE, silk suture, and titanium are withdrawn from the antibiotic stock solution, they were allowed to further dry overnight at ambient conditions at room temperature. Vehicle (100% ethanol)-coated pieces were prepared in an identical manner, substituting absolute ethanol for the antibiotic stock solutions. PTFE implants were then cut to 5 mm×5 mm pieces, and silk suture was cut to 2 cm length for use in vitro and in vivo. Titanium screws were not further manipulated prior to use in vitro and in vivo.
(§3) MRSA was obtained from the clinical microbiology lab of Shriner's Hospital for Children (Cincinnati, OH). […] P. aeruginosa was grown from frozen glycerol stock overnight on TSB agar plates. MRSA was grown overnight from frozen glycerol stock on TSB agar plates with 5% sheep's blood. […] Bacteria were then washed twice by centrifugation at 3000×g for 10 min and resuspension in 0.9% NaCl. The optical density of the suspended bacteria was determined at 550 nm light and final inoculating concentration calculated from standard curves specific to each strain. Bacteria remained in 0.9% NaCl for in viva testing but were placed back into TSB for in vitro testing.
(§4) CF-1 mice were anesthetized with 120 mg/kg ketamine/16 mg/kg xylazine injected intraperitoneally and their backs shaved with electric clippers. A 2 cm incision was made in the back and implants (5 mm×5 mm PTFE, 2 cm silk suture, or titanium screws) were placed subcutaneously (n=9 per group).
(§5) Mice were sacrificed 3 days post infection. The implant capsule was entered with sterile instruments and the implant was removed and placed in 10 mL of sterile PBS. […] The implants and tissue were placed in a bath sonicator for 10 min to release adherent bacteria. Bacteria were then quantified by the plate dilution method. The most concentrated solution plated for each sample was a 1:100 dilution.

[4] = test system: P. aeruginosa (strain 762); experiment: Subcutaneous implant and infection of mice, P. aeruginosa colonization of implant; conditions: CF-1 mice, 2 million cfu, 3 days post infection; for reduction of P. aeruginosa colonization of PTFE in vivo: subcutaneous coated PTFE; for reduction of P. aeruginosa colonization of silk suture in vivo: subcutaneous coated silk suture; for reduction of P. aeruginosa colonization of titanium screws in vivo: subcutaneous coated titanium screws
Source text: as §1, §2, §3, §4, §5

[5] = physchem; conditions: 65 °C, organic solvent or mixture, thermodynamic from solid
Experimental: The process involved heating the ethanol to 65° C. and slowly adding the solid solute under bath sonication and manual agitation until the resulting solution was transparent. Dip coating was then carried out at room temperature immediately after removing the stock solutions from the heated water bath.
The reported solubility in the literature of the above antibiotics in ethanol are incompletely studied.

[6] = cited from earlier work; for reported solubility in ethanol/alcohol (in words): literature

solubility [5]	Compound	reduction of MRSA adherent to PTFE in vitro [1]	reduction of MRSA adherent to silk suture in vitro [1] [log]	reduction of MRSA adherent to titanium screws in vitro [1]	reduction of P. aeruginosa adherent to PTFE in vitro ([2]; coated PTFE) [log]	reduction of P. aeruginosa adherent to silk suture in vitro [2] [log]	reduction of P. aeruginosa adherent to titanium screws in vitro ([2]; coated titanium screws) [log]	reduction of MRSA colonization of PTFE in vivo [3]	reduction of MRSA colonization of silk suture in vivo [3]	reduction of MRSA colonization of titanium screws in vivo [3]	reduction of P. aeruginosa colonization of PTFE in vivo [4]	reduction of P. aeruginosa colonization of silk suture in vivo [4]	reduction of P. aeruginosa colonization of titanium screws in vivo [4]	reported solubility in ethanol/alcohol (in words) [6]	further results
–	C[C@H]1COc2c(N3CCN(C)CC3)c(F)cc3c(=O)c(C(=O)O)cn1c23 [Levofloxacin]	3.9 log	5.2	5.3 log	6.2	6.0	6.4	4.5 log and 3.7 log	5.1 log and 4.0 log	3.3 log and 3.0 log	4.4 log and 3.7 log	3.9 log and 4.3 log	4.0 log and 3.3 log	–	reduction of MRSA adherent to PTFE in vitro ([1]; listed as levofloxacin): 5.7 log; reduction of MRSA adherent to titanium screws in vitro ([1]; listed as levofloxacin): 5.2 log; reduction of P. aeruginosa adherent to PTFE in vitro ([2]; coated PTFE, listed as levofloxacin): 6.1 log
166000 µg/mL and 227000 µM	CC[C@H]1OC(=O)[C@H](C)[C@@H](O[C@H]2C[C@@](C)(OC)[C@@H](O)[C@H](C)O2)[C@H](C)[C@@H](O[C@@H]2O[C@H](C)C[C@H](N(C)C)[C@H]2O)[C@](C)(O)C[C@@H](C)C(=O)[C@H](C)[C@@H](O)[C@]1(C)O [Erythromycin]	5.7 log and 4.5 log	5.2	5.2 log and 5.3 log	5.8	1.6	5.1	3.8 log and 3.2 log	5.1 log	2.2 log and 2.5 log	4.4 log and 3.3 log	0.6 log and 0.4 log	0.5 log and 0.4 log	freely soluble	PA adherence to PTFE (in words) ([2]; coated PTFE, in vitro, p<0.05): significantly reduced; PA adherence to titanium screws (in words) ([2]; coated titanium screws, in vitro, p<0.05): significantly reduced; ethanol solubility reported by Sigma ([6]; ethanol, vendor value): 50 mg/mL
41000 µg/mL and 80000 µM	C[C@H]1c2cccc(O)c2C(=O)C2=C(O)[C@]3(O)C(=O)C(C(N)=O)=C(O)[C@@H](N(C)C)[C@@H]3[C@@H](O)[C@@H]21 [Doxycycline, Doxycycline Hyclate]	5.7 log	5.2	5.3 log	5.5	4.4	6.4	4.6 log and 4.7 log	3.2 log and 2.1 log	3.1 log and 3.0 log	4.4 log and 2.7 log	1.2 log and 1.1 log	3.7 log and 2.8 log	sparingly soluble	reduction of MRSA adherent to titanium screws in vitro ([1]; listed as doxycycline): 5.2 log; reduction of P. aeruginosa adherent to PTFE in vitro ([2]; coated PTFE, listed as doxycycline): 6.1 log; reduction of P. aeruginosa adherent to silk suture in vitro ([2]; listed as doxycycline): 6.0 log
–	O=C(N[C@H](CO)[C@H](O)c1ccc([N+](=O)[O-])cc1)C(Cl)Cl [Chloramphenicol]	5.7 log	5.2	5.3 log	–	–	–	3.1 log and 2.3 log	1.2 log and 1.1 log	2.2 log and 2.3 log	–	–	–	–	reduction of MRSA adherent to titanium screws in vitro ([1]; listed as chloramphenicol): 5.2 log
